Data on 2 compounds can be found in patent US8912120B2, “Herbicidal compositions comprising 4-amino-3-chloro-5-fluoro-6-(4-chloro-2-fluoro-3-methoxyphenyl) pyridine-2-carboxylic acid or a derivative thereof and synthetic auxin herbicides” (Dow AgroSciences, LLC., priority 2012, dated 2014).

Where a name gives a salt, the structure may show the parent alone. Read-outs that look alike come from different tables or passages of the source.

Experiment [1] relates to ECHOR. The experiment can be described thus: Example II: in-water applied herbicidal mixtures, transplanted paddy rice, ECHOR. The class given is in vivo, Echinochloa oryzoides (early watergrass). Conditions: Echinochloa oryzoides; for pest or weed control at 70 g/ha: 70 gae/ha. As for the experimental part: (§1) The prepared mud was dispensed in 365 mL aliquots into 16-ounce (oz.) non-perforated plastic pots with a surface area of 86.59 square centimeters (cm^2) leaving a headspace of 3 centimeters (cm) in each pot Mud was allowed to dry overnight prior to planting or transplanting. Rice seeds were planted in Sun Gro MetroMix® 306 planting mixture, which typically has a pH of 6.0 to 6.8 and an organic matter content of about 30 percent, in plastic plug trays. Seedlings at the second or third leaf stage of growth were transplanted into 840 mL of mud contained in 32-oz. non-perforated plastic pots with a surface area of 86.59 cm^2 4 days prior to herbicide application. […] Nutrients were added as Osmocote® (19:6:12, N:P:K^+ minor nutrients) at 2 g per 16-oz. pot and 4 g per 32-oz. pot.
(§2) Applications were made by injecting with a pipetter appropriate amounts of the application solutions, individually and sequentially, into the aqueous layer of the paddy. Control plants were treated in the same manner with the solvent blank. Applications were made so that all treated plant material received the same concentrations of acetone and crop oil concentrate.

Experiment [2] concerns CASOB. The experiment is described as follows: Example V: postemergence herbicidal activity of mixtures in forage crops (greenhouse), CASOB. The class given is in vivo, Cassia obtusifolia (sicklepod). Particulars: alone, 50 gae/ha, foliar, approximately 21 days. As for the experimental part: (§3) Seeds or root cuttings of the desired test plant species were planted in Sun Gro MetroMix® 306 planting mixture, which typically has a pH of 6.0 to 6.8 and an organic matter content of about 30 percent, in plastic pots with a surface area of 126.6 square centimeters (cm^2). […] The plants were grown for 14-60 days in a greenhouse with an approximate 14 hour photoperiod which was maintained at approximately 28° C. during the day and 24° C. during the night.
(§4) Spray solutions of the second herbicide or experimental compound mixtures were prepared by adding the stock solutions to the appropriate amount of dilution solution to form 12 mL spray solution with active ingredients in two-way combinations.

The test system of experiment [3] is CYPIR. The experiment can be described thus: Example I: postemergence foliar-applied herbicidal mixtures, direct seeded rice, CYPIR. The class given is in vivo, Cyperus iria (rice flatsedge).
Experimental: (§5) The soil matrix was contained in plastic pots with a volume of 1 quart and a surface area of 83.6 square centimeters (cm^2). […] The plants were grown for 8-22 days in a greenhouse with an approximate 14 h photoperiod which was maintained at about 29° C. during the day and 26° C. during the night. Nutrients (Peters Excel® 15-5-15 5-Ca 2-Mg and iron chelate) were applied in the irrigation solution as needed and water was added on a regular basis. Supplemental lighting was provided with overhead metal halide 1000-Watt lamps as necessary. The plants were employed for testing when they reached the first through fourth true leaf stage.
(§6) Treatments consisted of the acid or esters of 4-amino-3-chloro-5-fluoro-6-(4-chloro-2-fluoro-3-methoxy-phenyl)pyridine-2-carboxylic acid (Compound A), each formulated as an SC (suspension concentrate), and various herbicidal components alone and in combination. Forms of compound A were applied on an acid equivalent basis.
(§7) For treatments comprised of formulated compounds, measured amounts of compounds were placed individually in 25 mL glass vials and diluted in a volume of 1.25% (v/v) Agri-Dex® crop oil concentrated to obtain 12× stock solutions. […] Application solutions were prepared by adding an appropriate amount of each stock solution (e.g., 1 mL) and diluted to the appropriate final concentrations with the addition of 10 mL of an aqueous mixture of 1.25% (v/v) crop oil concentrate so that the final spray solutions contained 1.25+/−0.05% (v/v) crop oil concentrate.
(§8) All stock solutions and applications solutions were visually inspected for compound compatibility prior to application. Spray solutions were applied to the plant material with an overhead Mandel track sprayer equipped with a 8002E nozzles calibrated to deliver 187 L/ha over an application area of 0.503 m^2 at a spray height of 18 to 20 inches (46 to 50 cm) above average plant canopy height. Control plants were sprayed in the same manner with the solvent blank.
(§9) The treated plants and control plants were placed in a greenhouse as described above and watered by sub-irrigation to prevent wash-off of the test compounds. After approximately 3 weeks, the condition of the test plants as compared with that of the untreated plants was determined visually and scored on a scale of 0 to 100 percent where 0 corresponds to no injury or growth inhibition and 100 corresponds to complete kill.
(§10) Colby's equation was used to determine the herbicidal effects expected from the mixtures (Colby, S. R. 1967. Calculation of the synergistic and antagonistic response of herbicide combinations. Weeds 15:20-22).
(§11) The following equation was used to calculate the expected activity of mixtures containing two active ingredients, A and B: Expected=A+B−(A×B/100)
(§12) A=observed efficacy of active ingredient A at the same concentration as used in the mixture.
(§13) B=observed efficacy of active ingredient B at the same concentration as used in the mixture.
Experiment [4] concerns LEFCH. The experiment can be described thus: Example I: postemergence foliar-applied herbicidal mixtures, direct seeded rice, LEFCH. The format is in vivo, Leptochloa chinensis (Chinese sprangletop).
Experimental: as §5, §6, §7, §8, §9, §10, §11, §12, §13
The subject of experiment [5] is SCPMA. The experiment can be described thus: Example II: in-water applied herbicidal mixtures, transplanted paddy rice, SCPMA. The format is in vivo. How it is done: as §1, §2
The subject of experiment [6] is ECHCO. The experiment is described as follows: Example I: postemergence foliar-applied herbicidal mixtures, direct seeded rice, ECHCO.
Experimental: as §5, §6, §7, §8, §9, §10, §11, §12, §13
In experiment [7] the test system is SINAR. The experiment is described as follows: Example V: postemergence herbicidal activity of mixtures in forage crops, SINAR. The format is in vivo, Sinapis arvensis (wild mustard). Conditions: alone, 50 gae/ha, foliar, approximately 21 days. As for the experimental part: as §3, §4
Experiment [8] relates to SIDSP. The experiment can be described thus: Example V: postemergence herbicidal activity of mixtures in forage crops, SIDSP. The format is in vivo, Sida spinosa (prickly sida). Conditions: alone, 50 gae/ha, foliar, approximately 21 days. How it is done: as §3, §4
Experiment [9] concerns ECHCG. The experiment can be described thus: Example II: in-water applied herbicidal mixtures, transplanted paddy rice, ECHCG. The format is in vivo, Echinochloa crus-galli (barnyardgrass). How it is done:
as §1, §2

In experiment [10] the test system is ECHCG. The experiment can be described thus: Example I: postemergence foliar-applied herbicidal mixtures, direct seeded rice, ECHCG.
Experimental: as §5, §6, §7, §8, §9, §10, §11, §12, §13
Experiment [11] deals with CYPDI. The experiment is described as follows: Example I: postemergence foliar-applied herbicidal mixtures, direct seeded rice, CYPDI. The class given is in vivo, Cyperus difformis (smallflower umbrella sedge).
Experimental: as §5, §6, §7, §8, §9, §10
The following equation was used to calculate the expected activity of mixtures containing two active ingredients, A and B: Expected=A+B−(A×B/100) […]
Experiment [12] concerns SCPJU. The experiment is described as follows: Example II: in-water applied herbicidal mixtures, transplanted paddy rice, SCPJU. The class given is in vivo, Schoenoplectus juncoides (Japanese bulrush). Conditions: 25 DAA. How it is done:
as §1, §2

Experiment [13] concerns LEFCH. The experiment is described as follows: Example II: in-water applied herbicidal mixtures, transplanted paddy rice, LEFCH. The format is in vivo, Leptochloa chinensis (Chinese sprangletop). Conditions: 25 DAA; 70 gae/ha. As for the experimental part: as §1, §2
The mark [14] stands for this setting: 70 gae/ha (Compound A Benzyl Ester rate not given).
[15] abbreviates: 140 gae/ha (Compound A Benzyl Ester rate not given).

Regarding `COc1c(Cl)ccc(Cl)c1C(=O)O` [Dicamba DMA Salt, 3,6-dichloro-2-methoxybenzoic acid compound with N-methylmethanamine, reference compound], the pest or weed control at 140 g/ha in [1] (504 h, read-out: Visual Weed Control (%) Obs, 21 DAA, 140 gae/ha) turned out to be 10%; in experiment [1] (504 h, read-out: Visual Weed Control (%) Obs, 21 DAA, 140 gai/ha), 10%. In addition, the pest or weed control at 280 g/ha in [1] (504 h, read-out: Visual Weed Control (%) Obs, 21 DAA, 280 gae/ha) was determined as 15%; in experiment [1] (504 h, read-out: Visual Weed Control (%) Obs, 21 DAA, 280 gai/ha) it was 15%. For the same compound, the “CASOB Obs (observed value)” value in [2] is 20%. The “Visual Weed Control (%) - 20 DAA CYPIR Obs” value amounted to 0% in experiment [3] (70 gae/ha), 0% in [3] (140 gae/ha) and 35% in [3] (280 gae/ha). Besides, the “Visual Weed Control (%) - 20 DAA LEFCH Obs” value in experiment [4] (140 gae/ha) and in [4] (280 gae/ha) was 0% in each case. For the same compound, the “Visual Weed Control (%) Obs” value in experiment [5] (21 DAA, 140 gae/ha) was determined as 0%; in experiment [5] (21 DAA, 140 gai/ha) it was 0%; in experiment [5] (21 DAA, 280 gae/ha), 0%; in experiment [9] (21 DAA, 140 gae/ha), 0%; in [9] (21 DAA, 280 gae/ha), 10%. Moreover, the “Visual Weed Control (%) - 20 DAA ECHCO Obs” value in experiment [6] (70 gae/ha), in experiment [6] (140 gae/ha) and in experiment [6] (280 gae/ha) was 0% each time. Further, in experiment [7], the “SINAR Obs (observed value)” value came to 65%. In addition, the “SIDSP Obs (observed value)” value in [8] came out at 25%.
`CCCCCCC(C)OC(=O)COc1nc(F)c(Cl)c(N)c1Cl` (stereo not drawn) [Fluroxypyr MHE, 1-methylheptyl 2-[(4-amino-3,5-dichloro-6-fluoro-2-pyridinyl)oxy]acetate, reference compound]: the pest or weed control at 70 g/ha in experiment [1] (456 h, read-out: Visual Weed Control (%) Obs, 19 DAA) is 0%; in experiment [1] (600 h, read-out: Visual Weed Control (%) Obs, 25 DAA) it was 0%. Further, the pest or weed control at 140 g/ha in experiment [1] (456 h, read-out: Visual Weed Control (%) Obs, 19 DAA, 140 gae/ha) came to 0%; in [1] (600 h, read-out: Visual Weed Control (%) Obs, 25 DAA, 140 gae/ha), 0%. Further, the “Visual Weed Control (%) - 21 DAA ECHCG Obs” value in experiment [10] (70 gae/ha), in experiment [10] (setting [14]), in [10] (140 gae/ha) and in [10] (setting [15]) was 0% throughout. In [10] (280 gae/ha), the “Visual Weed Control (%) - 19 DAA ECHCG Obs” value turned out to be 25%. Moreover, the “Visual Weed Control (%) - 21 DAA CYPDI Obs” value came to 15% in [11] (70 gae/ha) and 80% in [11] (140 gae/ha). The “Visual Weed Control (%) - 19 DAA LEFCH Obs” value in [4] (280 gae/ha) came to 28%. Also, the “Visual Weed Control (%) Obs” value turned out to be 30% in [5] (22 DAA, 149 gae/ha); 20% in experiment [12] (70 gae/ha); 30% in [12] (140 gae/ha); 0% in experiment [9] (19 DAA, 70 gae/ha); 0% in [9] (19 DAA, 140 gae/ha); 0% in [9] (19 DAA, 280 gae/ha). The “Visual Weed Control (%) Obs” value in experiment [9] (25 DAA, 140 gae/ha) was determined as 0%; in [13], 20%. Moreover, the “Visual Weed Control (%) - 21 DAA ECHCO Obs” value in experiment [6] (70 gae/ha), in experiment [6] (setting [14]), in [6] (140 gae/ha) and in [6] (setting [15]) was 0% each time. The “Visual Injury (%) Obs” value in experiment [13] was found to be 20%.
